In the NIST ThermoML archive (doi:10.1021/acs.jced.7b00347):

Test: mn = molality of the nth substance listed, in mol/kg
Details: for electrical conductivity: 100 kPa, Liquid, Alternating current cell with electrodes; for surface tension liquid-gas: Ring tensiometer

CCCCCCCCC[NH+](CCO)CC(C)O.[Cl-] (stereo not drawn) + O
Details | electrical conductivity [S/m] | surface tension liquid-gas [mN/m]
298.15 K, m1 = 0.0008607 | 0.00345 | –
298.15 K, m1 = 0.0008869 | 0.00352 | –
303.15 K, m1 = 1.77e-05 | 0.00064 | –
303.15 K, m1 = 1.774e-05 | – | 51.35
303.15 K, m1 = 3.548e-05 | – | 46.22
303.15 K, m1 = 3.66e-05 | 0.000736 | –
303.15 K, m1 = 5.54e-05 | 0.000832 | –
303.15 K, m1 = 7.43e-05 | 0.000928 | –
303.15 K, m1 = 8.87e-05 | – | 38.79
303.15 K, m1 = 9.31e-05 | 0.00102 | –
303.15 K, m1 = 0.000112 | 0.00112 | –
303.15 K, m1 = 0.0001308 | 0.00122 | –
303.15 K, m1 = 0.0001497 | 0.00131 | –
303.15 K, m1 = 0.0001685 | 0.00141 | –
303.15 K, m1 = 0.0001774 | – | 33.47
303.15 K, m1 = 0.0001874 | 0.00151 | –
303.15 K, m1 = 0.0002062 | 0.0016 | –
303.15 K, m1 = 0.0002251 | 0.0017 | –
303.15 K, m1 = 0.0002439 | 0.00179 | –
303.15 K, m1 = 0.0002628 | 0.00189 | –
303.15 K, m1 = 0.0002661 | – | 30.23
303.15 K, m1 = 0.0002816 | 0.00199 | –
303.15 K, m1 = 0.0003004 | 0.00208 | –
303.15 K, m1 = 0.0003193 | 0.00218 | –
303.15 K, m1 = 0.0003229 | – | 29.48
303.15 K, m1 = 0.0003451 | 0.00227 | –
303.15 K, m1 = 0.0003548 | – | 29.41
303.15 K, m1 = 0.0003709 | 0.00236 | –
303.15 K, m1 = 0.0003967 | 0.00245 | –
303.15 K, m1 = 0.0004225 | 0.00254 | –
303.15 K, m1 = 0.0004483 | 0.00263 | –
303.15 K, m1 = 0.0004741 | 0.00272 | –
303.15 K, m1 = 0.0004999 | 0.00281 | –
303.15 K, m1 = 0.0005257 | 0.00291 | –
303.15 K, m1 = 0.0005515 | 0.003 | –
303.15 K, m1 = 0.0005773 | 0.00309 | –
303.15 K, m1 = 0.0006031 | 0.00318 | –
303.15 K, m1 = 0.0006289 | 0.00327 | –
303.15 K, m1 = 0.0006547 | 0.00336 | –
303.15 K, m1 = 0.0006805 | 0.00345 | –
303.15 K, m1 = 0.0007063 | 0.00354 | –
303.15 K, m1 = 0.0007321 | 0.00363 | –
303.15 K, m1 = 0.0007579 | 0.00372 | –
303.15 K, m1 = 0.0007837 | 0.00381 | –
303.15 K, m1 = 0.0008095 | 0.00391 | –
303.15 K, m1 = 0.0008353 | 0.004 | –
303.15 K, m1 = 0.0008611 | 0.00409 | –
303.15 K, m1 = 0.0008869 | 0.00418 | –
303.15 K, m1 = 0.000887 | – | 28.48
303.15 K, m1 = 0.001774 | – | 28.01
303.15 K, m1 = 0.002661 | – | 27.82
303.15 K, m1 = 0.003547 | – | 27.65
308.15 K, m1 = 8.869e-06 | – | 52.23
308.15 K, m1 = 1.77e-05 | 0.00074 | –
308.15 K, m1 = 1.774e-05 | – | 47.19
308.15 K, m1 = 3.42e-05 | 0.000841 | –
308.15 K, m1 = 3.548e-05 | – | 42.29
308.15 K, m1 = 5.07e-05 | 0.000941 | –
308.15 K, m1 = 6.72e-05 | 0.00104 | –
308.15 K, m1 = 8.36e-05 | 0.00114 | –
308.15 K, m1 = 8.87e-05 | – | 35.88
308.15 K, m1 = 0.0001001 | 0.00124 | –
308.15 K, m1 = 0.0001166 | 0.00134 | –
308.15 K, m1 = 0.000133 | 0.00144 | –
308.15 K, m1 = 0.0001495 | 0.00154 | –
308.15 K, m1 = 0.000166 | 0.00165 | –
308.15 K, m1 = 0.0001774 | – | 30.89
308.15 K, m1 = 0.0001825 | 0.00175 | –
308.15 K, m1 = 0.0001989 | 0.00185 | –
308.15 K, m1 = 0.0002154 | 0.00195 | –
308.15 K, m1 = 0.0002319 | 0.00205 | –
308.15 K, m1 = 0.0002483 | 0.00215 | 28.73
308.15 K, m1 = 0.0002732 | – | 28.57
308.15 K, m1 = 0.0002803 | 0.00229 | –
308.15 K, m1 = 0.0003122 | 0.00243 | –
308.15 K, m1 = 0.0003441 | 0.00257 | –
308.15 K, m1 = 0.0003548 | – | 28.44
308.15 K, m1 = 0.0003761 | 0.00271 | –
308.15 K, m1 = 0.000408 | 0.00285 | –
308.15 K, m1 = 0.0004399 | 0.00299 | –
308.15 K, m1 = 0.0004718 | 0.00313 | –
308.15 K, m1 = 0.0005038 | 0.00327 | –
308.15 K, m1 = 0.0005357 | 0.00341 | –
308.15 K, m1 = 0.0005676 | 0.00356 | –
308.15 K, m1 = 0.0005996 | 0.00369 | –
308.15 K, m1 = 0.0006315 | 0.00384 | –
308.15 K, m1 = 0.0006634 | 0.00398 | –
308.15 K, m1 = 0.0006954 | 0.00412 | –
308.15 K, m1 = 0.0007273 | 0.00426 | –
308.15 K, m1 = 0.0007592 | 0.0044 | –
308.15 K, m1 = 0.0007911 | 0.00454 | –
308.15 K, m1 = 0.0008231 | 0.00468 | –
308.15 K, m1 = 0.000855 | 0.00482 | –
308.15 K, m1 = 0.0008869 | 0.00496 | –
308.15 K, m1 = 0.000887 | – | 27.73
308.15 K, m1 = 0.001774 | – | 27.41
308.15 K, m1 = 0.002661 | – | 27.23
